In data set [1] the target is T1, human 5-hydroxytryptamine2C (h5HT2C) receptor (Homo sapiens, UniProt P28335).
T1 construct: expressed in transfected cells; host or cells: CHO (Chinese Hamster Ovary) cells; membrane preparation
T1 sequence (P28335 33-458): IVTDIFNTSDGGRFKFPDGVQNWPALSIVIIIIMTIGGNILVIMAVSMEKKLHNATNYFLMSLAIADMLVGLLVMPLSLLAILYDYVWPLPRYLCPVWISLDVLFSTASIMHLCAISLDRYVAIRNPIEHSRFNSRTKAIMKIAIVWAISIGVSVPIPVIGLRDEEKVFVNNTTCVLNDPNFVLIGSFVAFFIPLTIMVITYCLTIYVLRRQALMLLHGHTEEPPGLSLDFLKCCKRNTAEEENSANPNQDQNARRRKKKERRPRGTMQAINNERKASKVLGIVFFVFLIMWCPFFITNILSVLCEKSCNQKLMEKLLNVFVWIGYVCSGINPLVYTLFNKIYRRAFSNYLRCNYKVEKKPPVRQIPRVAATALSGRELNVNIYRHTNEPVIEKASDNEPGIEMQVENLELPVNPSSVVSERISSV
Briefly: 5HT2C Receptor Binding Test Procedure ([125I] DOI displacement, CHO cell membranes).

For a further data set, the target named is T2, human 5-HT2C receptor (Homo sapiens, UniProt P28335).
T2 construct: expressed in transfected cells; host or cells: CHO cells
T2 sequence (P28335 33-458): T1 sequence (P28335 33-458)
Briefly: Stimulation of [3H] Inositol Monophosphate Production by 5-HT2C Agonists (transfected CHO cells). Format: cell-based.

In general, melting point refers to the temperature of the solid-liquid transition. As a reminder, the Ki is a dissociation constant, usually derived from enzyme kinetics or from competition with a known ligand. The term Kd denotes the equilibrium constant for the complex coming apart. By Emax is commonly meant the maximal effect, on the per cent scale that the assay sets. The term EC50 denotes the concentration that produces a half-maximal response.

Counter-ions that a name gives are not always drawn.

Description for human 5-HT2C receptor: One (1) ml of maintenance medium containing 1 μCi/ml myo-[^3H] inositol was added to each well. After 48 hours labeling, the cells were washed once with 0.5 ml DMEM containing 25 mM HEPES and 10 mM LiCl, then preincubated with the medium for 30 min (antagonists were included in this period if tested). At the end of the preincubation, the medium was removed, the cells were then incubated with test compounds (in presence of antagonists if needed) for 30 min. The reaction was terminated by removal of the incubation solution and addition of 0.5 ml ice-cold 5% PCA, followed by 15 to 30 min incubation on ice. 200 μl of 0.5 M Tes/1.5 M K2CO3 was added to each well to neutralize to pH 7, and plates were left on ice for another 15 to 30 min to precipitate all salts. The liquid and solid phases were separated by centrifugation.
A portion (350 μl) of the upper aqueous phase was applied to Dowex AG-1X8 (formate form, 100-200 mesh) columns. The columns were then washed stepwise with 10 ml of water and 10 ml of 25 mM ammonium formate to remove free myo-[^3H]inositol and deacylated phosphoinositol, respectively. Finally 10 ml of 0.2 M ammonium formate solution was applied to the columns to elute [^3H] inositol monophosphate ([^3H] IP1) directly into scintillation vials. Of this eluate, 1 ml was used to determine radioactivity by scintillation counting. […]

Turning to `c1cc2c3c(c1)C1CCCCCC1N3CCNC2` (stereo not drawn) (as salt: hydrochloride) [Example 2, 1,2,3,4,8,9,10,11,12,12a-Decahydro-7bH-cyclohepta[b][1,4]diazepino[6,7,1-hi]indole], the melting point lay within 258 to 263 °C.

As to `CSc1ccc2c(c1)C(N1CCN(C)CC1)Cc1ccccc1S2` (stereo not drawn) [Methiothepin], the Ki in data set [1] (reference compounds, [125I] DOI binding, h5HT2C in CHO membranes, read-out: Ki value and 95% confidence interval) came to 4.6 nM.

The molecule `c1cc2c3c(c1)c1c(n3CCNC2)CCCCC1` (as salt: hydrochloride) [Example 1, 1,2,3,4,9,10,11,12-Octahydro-8H-cyclohepta[b][1,4]diazepino[6,7,1-hi]indole] registered a melting point of 303 to 306 °C.

As to `COc1cc(CC(C)N)c(OC)cc1I` (stereo not drawn) [[^125I] DOI], in data set [1] (read-out: dissociation constant, KD of [125I] DOI at the human serotonin 5HT2C receptor, saturation binding with increasing concentrations of [125I] DOI), the dissociation constant Kd turned out to be 0.4 nM.

Consider `c1cc2c3c(c1)c1c(n3CCNC2)CCCCC1` [Example 1, 1,2,3,4,9,10,11,12-Octahydro-8H-cyclohepta[b][1,4]diazepino[6,7,1-hi]indole], for which the Emax at human 5-HT2C receptor (CHO, read-out: 5HT2C % Emax (5HT, 100%)) worked out at 73%. Further, the concentration for a half-maximal effect (EC50) on human 5-HT2C receptor (read-out: Stimulation of IP3 (EC50)) was 500 nM.

The values are drawn from patent US7271164B2, “Cyclohepta[b][1,4]diazepino[6,7,1,-hi]indoles and derivatives” (Wyeth, priority 2000, dated 2007).
